Source: US20230270816A1, “COMBINATION OF ANTINEOPLASTIC ANTIBIOTICS AND BCL-2 INHIBITORS FOR THE TREATMENT OF NPM-1-DRIVEN ACUTE MYELOID LEUKEMIA (AML)” (INSERM (INSTITUTE NATIONAL DE LA SANTÉ ET DE LA RECHERCHE …, priority 2020, published 2023)
Where two headings read alike, the source gives them in different places. Starred links: 1 amine or outer side, 2 acyl side, 3 side chain; linkers in the order of their positions; H or OH if unused. Positions of bridges follow the written chain, without caps; N, C: chain ends. Non-standard residues stand in square brackets, D forms with d. Residues, ends and D or L forms follow the SMILES beside them. Chains are numbered I, II in the order given. Actinocin(9to1) = Cc1c2oc3c(C)ccc(C(=O)[*:1])c3nc-2c(C(=O)[*:2])c(N)c1=O; NMeV = CN[C@H](C(=O)O)C(C)C; Sar = CNCC(=O)O

Assays:
[1] = test system: AML3 cells; assay: Mitochondrial network and function in AML3 cells; assay type: cell-based
From the text: (§1) Conversely, we used Thenoyl-trifluoroacetone (TTFA) a well-characterized inhibitor of mitochondrial complex II and major inducer of ROS.

[2] = test system: PML NBs; assay: PML nuclear body (NB) reformation ex vivo; assay type: cell-based; conditions: for effect of ROS scavenger on ActD NB-restoration: AML2-NPM1c cells
From the text: as §1

[3] = test system: AML3 cells; assay: Senescence markers and clonogenic activity in AML3 cells; assay type: cell-based; conditions: for clonogenic activity: AML3 cells
From the text: as §1

[4] = test system: TP53; assay: Doxorubicin mitochondrial rounding and TP53 activation; assay type: cell-based
From the text: Targeting mitochondrial function by antibiotics was proposed as a therapeutic option for cancer^35,36 and mitochondrial status modulates chemotherapy response^37,38. Actinomycin D drives mitochondrial alterations prior to detectable activation of the ribosomal or DNA damage checkpoints. Actinomycin D inhibits complex II activity, which may reflect its structural similarity with FAD, one of its electron transporters. This may explain how ActD induces ROS, immediate early response genes, sensitizes cells to apoptosis or initiates immunogenic cell death^39. Complex II is important in hematopoietic progenitors^40, and regulated by PML^41, contributing to ActD therapeutic index in AML blasts. In vivo, ActD triggered features of mitochondria-induced senescence^26. Downstream of acute mitochondrial stress, our experiments reveal a key role of ROS signalling and PML/TP53 senescence (data not shown), drawing an unexpected similarity with acute promyelocytic leukemia, where NBs reformation drive response to arsenic therapy^12,42. In that respect, complex II poisoning has activity in APL models^43. […] Clinically, as both antineoplastic antibiotics (e.g. ActD) and BCL-2 inhibitors (e.g. Venetoclax) have remarkable clinical activity in NPM1c-AMLs, the dramatic synergy outlined here should rapidly be evaluated in patients.

[5] = biological target: T1, complex II (Homo sapiens, UniProt P31040); assay: Electron transport chain complex activity; assay type: biochemical; conditions: but not complex I or IV; primarily in NPM1c-expressing cells
T1 construct: endogenous in cells; host or cells: NPM1c-expressing cells (not further specified; the same paragraph mentions AML3, AML2-NPM1c and NPM1c-ES cells)
T1 sequence (P31040 43-664): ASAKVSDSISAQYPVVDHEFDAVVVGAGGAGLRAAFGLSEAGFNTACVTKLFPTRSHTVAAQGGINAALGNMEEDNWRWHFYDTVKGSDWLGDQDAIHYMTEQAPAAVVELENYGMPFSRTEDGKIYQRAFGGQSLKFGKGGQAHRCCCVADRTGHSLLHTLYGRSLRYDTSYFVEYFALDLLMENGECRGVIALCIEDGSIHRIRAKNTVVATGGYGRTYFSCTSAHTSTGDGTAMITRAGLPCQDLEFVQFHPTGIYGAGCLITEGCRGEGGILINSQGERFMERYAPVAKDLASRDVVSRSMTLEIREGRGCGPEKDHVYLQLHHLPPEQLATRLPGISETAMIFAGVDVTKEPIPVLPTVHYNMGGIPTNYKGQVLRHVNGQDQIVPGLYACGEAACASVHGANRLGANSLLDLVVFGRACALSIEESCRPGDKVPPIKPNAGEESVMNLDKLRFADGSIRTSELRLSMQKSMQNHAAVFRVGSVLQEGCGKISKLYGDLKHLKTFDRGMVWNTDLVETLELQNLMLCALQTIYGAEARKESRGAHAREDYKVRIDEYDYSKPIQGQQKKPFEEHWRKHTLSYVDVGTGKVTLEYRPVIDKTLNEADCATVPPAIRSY
T1 sequence (P21912 29-280 partner): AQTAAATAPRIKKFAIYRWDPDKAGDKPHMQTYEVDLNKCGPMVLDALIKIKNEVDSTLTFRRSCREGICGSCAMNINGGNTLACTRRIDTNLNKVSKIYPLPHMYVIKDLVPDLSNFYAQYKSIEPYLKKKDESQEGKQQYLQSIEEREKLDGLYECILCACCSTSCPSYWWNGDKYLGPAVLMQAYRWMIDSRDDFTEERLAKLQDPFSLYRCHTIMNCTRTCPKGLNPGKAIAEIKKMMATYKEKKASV
T1 sequence (Q99643 30-169 partner): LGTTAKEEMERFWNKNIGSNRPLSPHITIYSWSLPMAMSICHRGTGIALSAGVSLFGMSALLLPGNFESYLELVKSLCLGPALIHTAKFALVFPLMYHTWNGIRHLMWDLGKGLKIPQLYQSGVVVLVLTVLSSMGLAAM
T1 sequence (O14521 57-159 partner): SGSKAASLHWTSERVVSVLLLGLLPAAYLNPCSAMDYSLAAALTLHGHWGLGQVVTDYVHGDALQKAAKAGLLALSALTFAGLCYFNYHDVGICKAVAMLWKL

[6] = test system: primary human NPM1c-AML blasts; assay: Immune-deficient mice xenografted with primary human NPM1c-AML blasts; assay type: in vivo
From the text: FIG. 2: ActD enhances Venetoclax anti-leukaemic effects. Response to ActD and/or Venetoclax in a transplantable AML model initiated by NPM1c+IDH1^R132H mutation. A, GFP abundance in bone marrow samples collected at treatment interruption and B, survival curve, n=2. C, abundance of human AML cells in xenografted mice treated for two weeks. Combined therapy induces AML regression.
(§2) We first assessed ActD response in primary cells.
(§3) We therefore explored the ActD/Venetoclax interaction in different NPM1c-driven AML models in vivo. […] Thus, ActD and Venetoclax dramatically synergized to clear AMLs in vivo.

[7] = test system: murine NPM1c-driven AML; assay: Murine NPM1c-driven AML model; conditions: mouse, in vivo
From the text: as §2, §3

[8] = test system: leukemic blasts; assay: AML patient treated with a single ActD course; assay type: in vivo
[9] = test system: TP53
[10] = test system: NPM1c-AML; conditions: Half of NPM1c-AML patients; single agent; cited from earlier work
[11] = test system: AML2-NPM1c cells; assay: Growth of isogenic AML2-NPM1c / AML2-NPM1 cells; assay type: cell-based; conditions: AML2-NPM1c vs AML2-NPM1 cells; inhibition of JAK1/2 signalling
From the text: TFAM reduction may reflect transcriptional down-regulation of PGC1A by IFN signalling^16. Importantly, stable NPM1c expression drove PGC1α hyperacetylation resulting in its functional inactivation, possibly through PML NB downregulation (data not shown)^10. These altered mitochondria and release of mtDNA into the cytoplasm activate multiple downstream intracellular stress pathway, particularly IFN and NFKB targets (data not shown), at least in part through cGAS (cyclic GMP-AMP synthase) activation and cGAMP production (data not shown). Other stress pathways, such as oxidative stress or unfolded protein response were also activated (data not shown), resulting in decreased protein synthesis (data not shown). Western blot analyses comparing AML2-NPM1c to AML2-NPM1 cells validated activation of multiple stress pathways by the NPM1c oncogene, including the up-regulation of key TP53-repressed metabolic enzymes (data not shown). As expected, these mitochondrial alterations yielded decreased ATP/ADP+AMP or GTP/GDP+GMP ratios, reflecting metabolic stress (data not shown). Stress responses could directly or indirectly favour leukaemogenesis^20-22. […] These mitochondrial defects may constitute targetable intrinsic weaknesses and, for example, account for the exquisite clinical sensitivity of NPM1c-AMLs to Bcl2 antagonists^23.

[12] = leukemic blasts from peripheral blood

## O=C(CC(=O)C(F)(F)F)c1cccs1 [TTFA, Thenoyl-trifluoroacetone]
[1]; AML3 cells
  mitochondrial superoxide: massively induced mitochondrial superoxide
[2]; NPM1c-transfected stable GFP-PML-III MEFs
  NB formation: restored NB formation
[3]
  clonogenic activity: decreased clonogenic activity

## COc1cccc2c1C(=O)c1c(O)c3c(c(O)c1C2=O)C[C@@](O)(C(=O)CO)C[C@@H]3O[C@H]1C[C@H](N)[C@H](O)[C@H](C)O1 [Doxorubicin]
[4]
  TP53 activation: PML-dependent, NPM1c-enhanced and NAC-reversible TP53 activation
  mitochondrial morphology: triggered immediate mitochondrial rounding

## Cc1c2oc3c(C)ccc(C(=O)N[C@@H]4C(=O)N[C@H](C(C)C)C(=O)N5CCC[C@H]5C(=O)N(C)CC(=O)N(C)[C@@H](C(C)C)C(=O)O[C@@H]4C)c3nc-2c(C(=O)N[C@@H]2C(=O)N[C@H](C(C)C)C(=O)N3CCC[C@H]3C(=O)N(C)CC(=O)N(C)[C@@H](C(C)C)C(=O)O[C@@H]2C)c(N)c1=O [ActD, actinomycin D] (I: T[dV]P[Sar][NMeV] / II: T[dV]P[Sar][NMeV]; ester I:1-I:C, II:1-II:C; linker I:N-II:N via Actinocin(9to1))
[1]; AML3 and NPM1c-ES cells, as early as 1h
  mitochondrial network: fragmented the mitochondrial network
[5]
  complex II activity: further inhibited the basal low level of complex II
[2]; AML2-NPM1c, AML3 cells or NPM1c-transfected MEFs
  PML NB reformation: very rapid NB reformation
[2]; primary NPM1c-AML blasts treated ex vivo
  PML NB restoration: PML NB restoration was also observed
[3]
  clonogenic activity: loss of clonogenic activity
[3]; NPM1c-positive AML3 cells
  senescence signs (TP53 activation, p21, Serpine-1, cGAMP, SA-β-Gal): multiple signs of senescence
[6]; after 5 days of ActD therapy
  leukemic burden: dramatically reduced the leukemic burden
[6]; two xenografted mice
  stabilization of human TP53 vs mouse Trp53: rapidly triggered selective stabilization of human TP53
[7]
  AML response with leukaemia-selective TP53 activation: AML regression and blast differentiation
[8]; after a single course of daily ActD injections for 5 days
  blast decrease: 10^4 fold
[8]; [12]
  completion of in vivo reformation of PML NBs: ≤ 12 h
  start of in vivo reformation of PML NBs: 6 h
[9]; AML3 cells, ex vivo, 5 nM
  TP53 activation: triggered rapid TP53 activation
[9]; normal bone marrow progenitors in vivo or ex vivo, human or mouse primary fibroblasts (WI-38, MEFs) ex vivo, low doses
  TP53 stabilization: no significant TP53 stabilization
[10]
  clinical response: dramatic responses

## N[C@@H](CCC(=O)N[C@@H](CS)C(=O)NCC(=O)O)C(=O)O [glutathione]
[2]
  effect of ROS scavenger on ActD NB-restoration: completely blocked

## N#CCNC(=O)c1ccc(-c2ccnc(Nc3ccc(N4CCOCC4)cc3)n2)cc1 [CYT387]
[11]
  growth: inhibited growth, more potently in AML2-NPM1c than in AML2-NPM1 cells

## venetoclax
[1]; AML3 cells, Venetoclax alone
  mitochondrial effects: induced mitochondrial fragmentation, reduction of mitochondrial membrane potential, production of ROS and leakage of mtDNA to the cytoplasm

## CC(=O)N[C@@H](CS)C(=O)O [N-acetyl cysteine]
[2]
  effect of ROS scavenger on ActD NB-restoration: completely blocked
